What was measured:
human μ-calpain = target: T1, human μ-calpain (Homo sapiens, UniProt P07384); test: Enzymatic calpain inhibition assay; type: biochemical; conditions: substrate Suc-Leu-Tyr-AMC, read-out: Calp I IC50
T1 construct: purchased Calbiochem
T1 sequence (P07384 1-714): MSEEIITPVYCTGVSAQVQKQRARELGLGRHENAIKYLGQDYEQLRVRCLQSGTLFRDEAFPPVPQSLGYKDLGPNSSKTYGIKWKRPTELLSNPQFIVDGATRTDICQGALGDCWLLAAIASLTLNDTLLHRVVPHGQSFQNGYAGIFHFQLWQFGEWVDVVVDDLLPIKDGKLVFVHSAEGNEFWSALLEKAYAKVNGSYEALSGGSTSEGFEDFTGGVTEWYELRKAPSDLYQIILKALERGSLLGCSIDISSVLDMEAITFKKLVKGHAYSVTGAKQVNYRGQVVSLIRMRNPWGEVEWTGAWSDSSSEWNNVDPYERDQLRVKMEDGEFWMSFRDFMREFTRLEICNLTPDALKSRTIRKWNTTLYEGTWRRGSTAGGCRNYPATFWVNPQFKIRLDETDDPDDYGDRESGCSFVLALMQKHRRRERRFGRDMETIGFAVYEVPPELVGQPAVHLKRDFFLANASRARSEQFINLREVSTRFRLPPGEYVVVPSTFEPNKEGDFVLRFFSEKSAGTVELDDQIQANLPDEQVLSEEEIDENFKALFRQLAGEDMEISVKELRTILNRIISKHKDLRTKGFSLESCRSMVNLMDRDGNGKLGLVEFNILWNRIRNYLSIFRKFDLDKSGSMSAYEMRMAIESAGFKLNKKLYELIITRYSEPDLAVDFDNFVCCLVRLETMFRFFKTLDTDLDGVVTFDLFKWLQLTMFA
T1 sequence (P04632 1-268 partner): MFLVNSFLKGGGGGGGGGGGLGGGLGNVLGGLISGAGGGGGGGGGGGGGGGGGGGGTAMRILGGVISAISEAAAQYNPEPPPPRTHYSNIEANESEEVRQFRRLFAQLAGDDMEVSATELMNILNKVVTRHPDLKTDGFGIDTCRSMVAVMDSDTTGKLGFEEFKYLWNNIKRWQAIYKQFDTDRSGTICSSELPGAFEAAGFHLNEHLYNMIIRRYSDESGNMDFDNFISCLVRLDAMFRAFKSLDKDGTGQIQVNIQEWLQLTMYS
Description: The Ki value was also determined in some cases. These criteria were used to measure the inhibitory effect of the compounds (I) on calpain I, calpain II and cathepsin B.
Enzymatic Calpain Inhibition Assay
The inhibitory properties of calpain inhibitors are tested in 100 μl of a buffer containing 100 mM imidazole pH 7.5, 5 mM L-Cystein-HCl, 5 mM CaCl2, 250 μM of the calpain fluorogenic substrate Suc-Leu-Tyr-AMC (Sigma) (Sasaki et al., J. Biol. Chem., 1984, 259, 12489-12949) dissolved in 2.5 μl DMSO and 0.5 μg of human μ-calpain (Calbiochem). The inhibitors dissolved in 1 μl DMSO are added to the reaction buffer. The fluorescence of the cleavage product 7-amino-4-methylcoumarin (AMC) is followed in a SPECTRAmax GEMINI XS (Molecular Device) fluorimeter at λex=360 nm and λem=440 nm at 30° C. during 30 min at intervals of 30 sec in 96-well plates (Greiner). The initial reaction velocity at different inhibitor concentrations is plotted against the inhibitor concentration and the IC50 values determined graphically.

[1] = system: cellular calpains in C2C12 myoblasts; test: Calpain inhibition assay in C2C12 myoblasts; type: cell-based; conditions: 2 h incubation, calcium ionophore Br-A-23187, read-out: Calp I IC50 Myoblast
Description: Calpain Inhibition Assay in C2C12 Myoblasts
This assay is aimed at monitoring the ability of the substance to inhibit cellular calpains. C2C12 myoblasts are grown in 96-well plates in growth medium (DMEM, 20% foetal calf serum) until they reach confluency. The growth medium is then replaced by fusion medium (DMEM, 5% horse serum). 24 hours later the fusion medium is replaced by fusion medium containing the test substances dissolved in 1 μl DMSO. After 2 hours of incubation at 37° C. the cells are loaded with the calpain fluorogenic substrate Suc-Leu-Tyr-AMC at 400 μM in 50 μl of a reaction buffer containing 135 mM NaCl; 5 mM KCl; 4 mM CaCl2; 1 mM MgCl2; 10 mM Glucose; 10 mM HEPES pH 7.25 for 20 min at room temperature. The calcium influx, necessary to activate the cellular calpains, is evoked by the addition of 50 μl reaction buffer containing 20 μM of the calcium ionophore Br-A-23187 (Molecular Probes). The fluorescence of the cleavage product AMC is measured as described above during 60 min at 37° C. at intervals of 1 min. The IC50 values are determined as described above. Comparison of the IC50 determined in the enzymatic calpain inhibition assay to the IC50 determined in the C2C12 myoblasts calpain inhibiton assay, allows to evaluate the cellular uptake or the membrane permeability of the substance.

[2] = system: Primary fibroblasts from donors with Friedreich Ataxia (FRDA); test: BSO assay (cell viability under BSO-induced oxidative stress); type: cell-based, human; conditions: 24 h preincubation, 1 mM BSO; for EC50: Homo sapiens, Fibroblast
Description: Primary fibroblasts were derived from donors with molecular diagnosis for Friedreich Ataxia (FRDA) and control donors with no mitochondrial disease. Cell lines were obtained from Coriell Cell Repositories (Camden, N.J.; catalog numbers GM04078, GM08402 and GM08399 respectively). All cell types were diagnosed on the molecular level for intronic […] triplet repeat length of at least 400-450 repeats using a PCR-based method. Experiments were carried out as described in the literature (M. L. Jauslin et al., Human Mol. Genet., 2002, 11, 3055-3063): Cells were seeded in microtiter plates at a density of 4'000 cells per 100 μl in growth medium consisting of 25% (v/v) M199 EBS and 64% (v/v) MEM EBS without phenol red (Bioconcept, Allschwil, Switzerland) supplemented with 10% (v/v) fetal calf serum (PAA Laboratories, Linz, Austria), 100 U/ml penicillin, 100 μg/ml streptomycin (PAA Laboratories, Linz, Austria), 10 μg/ml insulin (Sigma, Buchs, Switzerland), 10 ng/ml EGF (Sigma, Buchs, Switzerland), 10 ng/ml bFGF (PreproTech, Rocky Hill, N.J.) and 2 mM glutamine (Sigma, Buchs, Switzerland). The cells were incubated in the presence of various test compounds for 24 h before addition of L-buthionine-(S,R)-sulfoximine (BSO) to a final concentration of 1 mM. Cell viability was measured after the first signs of toxicity appeared in the BSO-treated controls (typically after 16 to 48 h). The cells were stained for 60 min at room temperature in PBS with 1.2 μM calcein AM and 4 μM ethidium homodimer (Live/Dead assay, Molecular Probes, Eugene, Oreg.). Fluorescence intensity was measured with a Gemini Spectramax XS spectrofluorimeter (Molecular Devices, Sunnyvale, Calif.) using excitation and emission wavelengths of 485 nm and 525 nm respectively.

Compound | IC50 (human μ-calpain) [nM] | IC50 [1] [nM] | EC50 [2] [nM] | BSO EC50 [2]
CCNC(=O)C(=O)[C@H](Cc1ccc(Cl)cc1Cl)NC(=O)[C@H](CC(C)C)NC(=O)CCCCC1CCS[S+]1[O-] (stereo partly drawn) [Example 36] | 40 | 5000 | 3000 | –
CCNC(=O)C(=O)[C@H](Cc1ccc(F)cc1)NC(=O)[C@@H](NC(=O)CCCCC1CCSS1)C(C)C (stereo partly drawn) [Example 37] | 100 | 2500 | – | inactive
CCNC(=O)C(=O)[C@H](Cc1ccc(F)cc1)NC(=O)[C@@H](NC(=O)CCCCC1CCS[S+]1[O-])C(C)C (stereo partly drawn) [Example 38] | 180 | 7000 | 20000 | –
CCNC(=O)C(=O)[C@H](Cc1ccc(F)cc1)NC(=O)[C@H](CC(C)C)NC(=O)CCCCC1CCS[S+]1[O-] (stereo partly drawn) [Example 40] | 35 | 15000 | 3000 | –
CCNC(=O)C(=O)[C@H](Cc1ccc(Br)cc1)NC(=O)[C@@H](NC(=O)CCCCC1CCS[S+]1[O-])C(C)C (stereo partly drawn) [Example 54] | 150 | 8000 | 5000 | –
CCNC(=O)C(=O)[C@H](Cc1ccc(Br)cc1)NC(=O)[C@@H](NC(=O)CCCCC1CCSS1)C(C)CC (stereo partly drawn) [Example 74] | 180 | 9000 | 3000 | –
CCNC(=O)C(=O)[C@H](Cc1ccc(Br)cc1)NC(=O)[C@@H](NC(=O)CCCCC1CCS[S+]1[O-])C(C)CC (stereo partly drawn) [Example 75] | 750 | 9000 | 6000 | –
CCNC(=O)C(=O)[C@H](Cc1ccc(O)cc1)NC(=O)[C@@H](NC(=O)CCCCC1CCSS1)C(C)C (stereo partly drawn) [Example 80] | 150 | 2500 | 6000 | –
CCNC(=O)C(=O)[C@H](Cc1ccc(O)cc1)NC(=O)[C@H](CC(C)C)NC(=O)CCCCC1CCSS1 (stereo partly drawn) [Example 82] | 40 | 10000 | 15000 | –
CCNC(=O)C(=O)[C@H](Cc1ccc(OC)cc1)NC(=O)[C@@H](NC(=O)CCCCC1CCSS1)C(C)C (stereo partly drawn) [Example 84] | 400 | 4000 | 2000 | –
CCNC(=O)C(=O)[C@H](Cc1ccc(OC)cc1)NC(=O)[C@@H](NC(=O)CCCCC1CCS[S+]1[O-])C(C)C (stereo partly drawn) [Example 85] | 80 | 900 | 5000 | –
CCNC(=O)C(=O)[C@H](Cc1ccc(OC)cc1)NC(=O)[C@H](CC(C)C)NC(=O)CCCCC1CCS[S+]1[O-] (stereo partly drawn) [Example 95] | 35 | 2500 | 10000 | –
CCNC(=O)C(=O)[C@H](Cc1ccc(C)cc1)NC(=O)[C@@H](NC(=O)CCCCC1CCS[S+]1[O-])C(C)C (stereo partly drawn) [Example 105] | 80 | 1000 | 200 | –
CCNC(=O)C(=O)[C@H](Cc1ccc(C)cc1)NC(=O)[C@H](CC(C)C)NC(=O)CCCCC1CCS[S+]1[O-] (stereo partly drawn) [Example 111] | 25 | 1200 | 3000 | –
CCNC(=O)C(=O)[C@H](Cc1ccc(C)cc1)NC(=O)[C@@H](NC(=O)CCCCC1CCSS1)C(C)CC (stereo partly drawn) [Example 116] | 300 | 1000 | 2000 | –
CCNC(=O)C(=O)[C@H](Cc1ccc(C(F)(F)F)cc1)NC(=O)[C@@H](NC(=O)CCCCC1CCSS1)C(C)C (stereo partly drawn) [Example 122] | 200 | 1100 | 5000 | –
CCNC(=O)C(=O)[C@H](Cc1cccc(C(F)(F)F)c1)NC(=O)[C@H](CC(C)C)NC(=O)CCCCC1CCSS1 (stereo partly drawn) [Example 128] | 100 | 15000 | 20000 | –
CCNC(=O)C(=O)[C@H](Cc1cccc(C(F)(F)F)c1)NC(=O)[C@H](CC(C)C)NC(=O)CCCCC1CCS[S+]1[O-] (stereo partly drawn) [Example 129] | 50 | 4000 | 2000 | –
CCNC(=O)C(=O)[C@H](Cc1ccc(C#N)cc1)NC(=O)[C@@H](NC(=O)CCCCC1CCSS1)C(C)C (stereo partly drawn) [Example 130] | 120 | 5000 | 20000 | –
CCNC(=O)C(=O)[C@H](Cc1ccc(C#N)cc1)NC(=O)[C@@H](NC(=O)CCCCC1CCS[S+]1[O-])C(C)C (stereo partly drawn) [Example 131] | 180 | 7500 | 30000 | –
CCNC(=O)C(=O)[C@H](Cc1ccc(C#N)cc1)NC(=O)[C@H](CC(C)C)NC(=O)CCCCC1CCSS1 (stereo partly drawn) [Example 132] | 30 | 1700 | 5000 | –
CCNC(=O)C(=O)[C@H](Cc1ccc(C#N)cc1)NC(=O)[C@H](CC(C)C)NC(=O)CCCCC1CCS[S+]1[O-] (stereo partly drawn) [Example 133] | 50 | 2500 | 15000 | –
CCNC(=O)C(=O)[C@H](Cc1ccc([N+](=O)[O-])cc1)NC(=O)[C@H](CC(C)C)NC(=O)CCCCC1CCSS1 (stereo partly drawn) [Example 136] | 20 | 8000 | – | inactive
CCNC(=O)C(=O)[C@H](Cc1ccccc1)NC(=O)[C@@H](NC(=O)CCCCC1CCSS1)C(C)C (stereo partly drawn) [Example 138] | 80 | 3500 | 10000 | –
CCNC(=O)C(=O)[C@H](Cc1ccccc1)NC(=O)[C@H](CC(C)C)NC(=O)CCCCC1CCS[S+]1[O-] (stereo partly drawn) [Example 142] | 100 | 20000 | 3000 | –
CCNC(=O)C(=O)[C@H](Cc1ccccc1)NC(=O)[C@H](CC(C)(C)C)NC(=O)CCCCC1CCSS1 (stereo partly drawn) [Example 143] | 120 | 10000 | 2000 | –
CCNC(=O)C(=O)[C@H](Cc1ccccc1)NC(=O)[C@H](CC(C)(C)C)NC(=O)CCCCC1CCS[S+]1[O-] (stereo partly drawn) [Example 144] | 80 | 5000 | 7000 | –
